These are literature values, as cited in patent US20240141060A1, “DOSAGE REGIMES FOR ANTI-CD73 AND ANTI-ENTPD2 ANTIBODIES AND USES THEREOF” (NOVARTIS AG, priority 2021, published 2024).

For the data set the following is noted: patients; cited from earlier work.

On to `Nc1nc(-n2cccn2)nc(-n2cccn2)c1Br` [NIR178, 5-bromo-2,6-di-(1H-pyrazol-1-yl)pyrimidine-4-amine, reference compound], for which the MTD is recorded as 480 mg BID.
